Data taken from US7795290B2 (Genentech, Inc., priority 2004, dated 2010).

These molecules were tested against T1, AKT1 (Homo sapiens, UniProt P31749) (assay: HTS ATP-utilizing enzyme assay, off-chip mobility-shift (Caliper HTS 250)). Conditions: kinase named = inhibitory activity/selectivity; test compound 10 μM; active = greater than three-sigma from mean.
T1 construct: purchased Upstate 14-276
Format: biochemical
Summary of the method: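 AKT1 activity was measured by off-chip mobility shift (Caliper HTS 250) as the ratio of peptide substrate to phosphorylated product. Test compound was at 10 μM, with 2.5 h incubation at 20–22° C. EDTA wells served as 100% control and DMSO wells as 0%. Hits were called at three-sigma limits.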

T1 sequence (P31749 whole entry): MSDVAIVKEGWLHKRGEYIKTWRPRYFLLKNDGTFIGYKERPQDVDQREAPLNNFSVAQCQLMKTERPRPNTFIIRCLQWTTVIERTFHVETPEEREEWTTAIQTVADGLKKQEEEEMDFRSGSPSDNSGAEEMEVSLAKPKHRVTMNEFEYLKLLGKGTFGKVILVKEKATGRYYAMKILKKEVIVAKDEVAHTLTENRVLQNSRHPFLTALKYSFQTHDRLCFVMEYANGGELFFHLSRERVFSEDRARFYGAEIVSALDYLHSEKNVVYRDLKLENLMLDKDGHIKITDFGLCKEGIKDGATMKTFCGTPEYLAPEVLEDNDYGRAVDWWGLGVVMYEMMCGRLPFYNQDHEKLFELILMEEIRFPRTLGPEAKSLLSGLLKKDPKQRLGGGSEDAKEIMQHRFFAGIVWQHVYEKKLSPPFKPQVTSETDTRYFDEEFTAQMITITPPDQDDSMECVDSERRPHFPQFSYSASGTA

Activity, AKT1:
O=C(c1cccs1)N(CCCN1CCOCC1)c1nc(-c2cccc(F)c2)cs1 [N-(4-(3-fluorophenyl)thiazol-2-yl)-N-(3-morpholinopropyl)thiophene-2-carboxamide]
O=C(c1cccs1)N(CCCN1CCOCC1)c1nc(-c2ccccc2[N+](=O)[O-])cs1 [N-(3-morpholinopropyl)-N-(4-(2-nitrophenyl)thiazol-2-yl)thiophene-2-carboxamide]
O=C(c1cccs1)N(CCCN1CCOCC1)c1nc(-c2ccc(Cl)s2)cs1 [N-(4-(5-chlorothiophen-2-yl)thiazol-2-yl)-N-(3-morpholinopropyl)thiophene-2-carboxamide]
O=C(c1cccs1)N(CCCN1CCOCC1)c1nc(-c2coc3ccccc23)cs1 [N-(4-(benzofuran-3-yl)thiazol-2-yl)-N-(3-morpholinopropyl)thiophene-2-carboxamide]
CNC(=O)C1CCN(CCCN(C(=O)c2cccs2)c2nc(-c3cc4ccccc4o3)cs2)CC1 [1-(3-(N-(4-(benzofuran-2-yl)thiazol-2-yl)thiophene-2-carboxamido)propyl)-N-methylpiperidine-4-carboxamide]
O=C(c1cccs1)N(CCCCCN1CCOCC1)c1nc(-c2cc3ccccc3o2)cs1 [N-(4-(benzofuran-2-yl)thiazol-2-yl)-N-(5-morpholinopentyl)thiophene-2-carboxamide]
O=C1CN(C(=O)CCN(C(=O)c2cccs2)c2nc(-c3cc4ccccc4o3)cs2)CCN1 [N-(4-(benzofuran-2-yl)thiazol-2-yl)-N-(3-oxo-3-(3-oxopiperazin-1-yl)propyl)thiophene-2-carboxamide]
O=C(O)COc1cccc(-c2csc(N(CCCN3CCOCC3)C(=O)c3cccs3)n2)c1 [2-(3-(2-(N-(3-morpholinopropyl)thiophene-2-carboxamido)thiazol-4-yl)phenoxy)acetic acid]
O=C(c1cccs1)N(CCCN1CCOCC1)c1nc(-c2ccc3c(c2)OCCO3)cs1 [N-(4-(2,3-dihydrobenzo[b][1,4]dioxin-6-yl)thiazol-2-yl)-N-(3-morpholinopropyl)thiophene-2-carboxamide]
CCOC(=O)N1CCN(CCCN(C(=O)c2cccs2)c2nc(-c3cc4ccccc4o3)cs2)CC1 [ethyl 4-(3-(N-(4-(benzofuran-2-yl)thiazol-2-yl)thiophene-2-carboxamido)propyl)piperazine-1-carboxylate]
COc1ccc(-c2csc(N(CCCN3CCOCC3)C(=O)c3occc3C)n2)cc1 [N-(4-(4-methoxyphenyl)thiazol-2-yl)-3-methyl-N-(3-morpholinopropyl)furan-2-carboxamide]
CNC(=O)c1ccc(-c2csc(N(CCCN3CCOCC3)C(=O)c3cccs3)n2)cc1 [N-(4-(4-(methylcarbamoyl)phenyl)thiazol-2-yl)-N-(3-morpholinopropyl)thiophene-2-carboxamide]
Cc1c(-c2csc(N(CCCN3CCOCC3)C(=O)c3cccs3)n2)sc2ccccc12 [N-(4-(3-methylbenzo[b]thiophen-2-yl)thiazol-2-yl)-N-(3-morpholinopropyl)thiophene-2-carboxamide]
CCN(CC)C(=O)C1CCCN(CCCN(C(=O)c2cccs2)c2nc(-c3cc4ccccc4o3)cs2)C1 (stereo not shown) [1-(3-(N-(4-(benzofuran-2-yl)thiazol-2-yl)thiophene-2-carboxamido)propyl)-N,N-diethylpiperidine-3-carboxamide]
O=C(c1cccs1)N(CCCN1CCC[C@H]1CO)c1nc(-c2cc3ccccc3o2)cs1 [(S)—N-(4-(benzofuran-2-yl)thiazol-2-yl)-N-(3-(2-(hydroxymethyl)pyrrolidin-1-yl)propyl)thiophene-2-carboxamide]
CN(C)C1CCN(CCCN(C(=O)c2cccs2)c2nc(-c3cc4ccccc4o3)cs2)C1 (stereo not shown) [N-(4-(benzofuran-2-yl)thiazol-2-yl)-N-(3-(3-(dimethylamino)pyrrolidin-1-yl)propyl)thiophene-2-carboxamide]
